According to patent publication US20020042079A1, “METHODS AND AGENTS FOR MEASURING AND CONTROLLING MULTIDRUG RESISTANCE” (priority 1994, published 2002):

Tested on: MCF-7/ADR cells
Assay: Transport of BODIPY-sphingomyelin from TGN to cell surface
Format: cell-based, human
Conditions: Tamoxifen 10 μM
Protocol: When accumulated at high concentrations, BODIPY-sphingomyelin undergoes a green to red shift in fluorescence emission.
Cells were fixed by washing two times in cold fixing buffer (1% paraformaldehyde, 0.1 M sodium cacodylate, 0.1 M sucrose, pH 7.2) followed by a 15 minute incubation in fixing buffer on ice, and then washing two times with cold fixing buffer without paraformaldehyde. […] Biophys.

In the case of `CC/C(=C(\c1ccccc1)c1ccc(OCCN(C)C)cc1)c1ccccc1` [Tamoxifen], the “sphingomyelin fluorescence remaining associated with the cells after two hours” value is reported as “more than 70%”.
